Assay results taken from paper PMC9989926, “Zebrafish and medaka T1R (taste receptor type 1) proteins mediate highly sensitive recognition of L‐proline” (FEBS Open Bio, 2023).

How the values were obtained:
zfT1R2b/zfT1R3 = biological target: T1, zfT1R2b/zfT1R3 (Danio rerio, UniProt A4PHQ8+Q2MHK9, Q2MHK9:Y247H); assay: FLIPR Calcium […] cell-based calcium assay, FlexStation […]
T1 construct: gene tas1r2.2; entire coding regions, stably co-expressed with chimeric G-protein G16gust44 in Flp-In 293 cells; heterodimer; T1R3 clone Y247H (C741T); with Taste receptor type 1 member 3
T1 sequence (A4PHQ8 18-823): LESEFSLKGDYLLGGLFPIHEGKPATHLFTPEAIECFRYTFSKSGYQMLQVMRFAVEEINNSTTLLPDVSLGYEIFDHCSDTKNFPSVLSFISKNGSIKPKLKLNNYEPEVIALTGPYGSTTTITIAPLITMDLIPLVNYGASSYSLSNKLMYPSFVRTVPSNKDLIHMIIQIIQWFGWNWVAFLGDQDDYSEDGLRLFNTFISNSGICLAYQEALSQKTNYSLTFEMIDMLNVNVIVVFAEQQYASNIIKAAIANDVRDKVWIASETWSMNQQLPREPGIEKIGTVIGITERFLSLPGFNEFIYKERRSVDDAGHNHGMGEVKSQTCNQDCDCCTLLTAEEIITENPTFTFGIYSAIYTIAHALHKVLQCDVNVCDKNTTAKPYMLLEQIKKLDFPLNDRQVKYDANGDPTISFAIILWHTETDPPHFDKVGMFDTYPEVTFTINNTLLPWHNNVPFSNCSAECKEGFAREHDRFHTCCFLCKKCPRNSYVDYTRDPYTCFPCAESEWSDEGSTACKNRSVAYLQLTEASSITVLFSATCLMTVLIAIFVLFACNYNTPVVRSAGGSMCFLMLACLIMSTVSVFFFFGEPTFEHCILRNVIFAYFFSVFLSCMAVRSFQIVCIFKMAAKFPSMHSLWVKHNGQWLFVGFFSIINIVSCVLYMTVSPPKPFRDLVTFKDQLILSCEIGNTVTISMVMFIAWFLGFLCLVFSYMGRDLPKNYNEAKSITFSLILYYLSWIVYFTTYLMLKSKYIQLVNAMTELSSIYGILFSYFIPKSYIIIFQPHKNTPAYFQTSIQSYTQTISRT
T1 sequence (Q2MHK9 25-850 Y247H): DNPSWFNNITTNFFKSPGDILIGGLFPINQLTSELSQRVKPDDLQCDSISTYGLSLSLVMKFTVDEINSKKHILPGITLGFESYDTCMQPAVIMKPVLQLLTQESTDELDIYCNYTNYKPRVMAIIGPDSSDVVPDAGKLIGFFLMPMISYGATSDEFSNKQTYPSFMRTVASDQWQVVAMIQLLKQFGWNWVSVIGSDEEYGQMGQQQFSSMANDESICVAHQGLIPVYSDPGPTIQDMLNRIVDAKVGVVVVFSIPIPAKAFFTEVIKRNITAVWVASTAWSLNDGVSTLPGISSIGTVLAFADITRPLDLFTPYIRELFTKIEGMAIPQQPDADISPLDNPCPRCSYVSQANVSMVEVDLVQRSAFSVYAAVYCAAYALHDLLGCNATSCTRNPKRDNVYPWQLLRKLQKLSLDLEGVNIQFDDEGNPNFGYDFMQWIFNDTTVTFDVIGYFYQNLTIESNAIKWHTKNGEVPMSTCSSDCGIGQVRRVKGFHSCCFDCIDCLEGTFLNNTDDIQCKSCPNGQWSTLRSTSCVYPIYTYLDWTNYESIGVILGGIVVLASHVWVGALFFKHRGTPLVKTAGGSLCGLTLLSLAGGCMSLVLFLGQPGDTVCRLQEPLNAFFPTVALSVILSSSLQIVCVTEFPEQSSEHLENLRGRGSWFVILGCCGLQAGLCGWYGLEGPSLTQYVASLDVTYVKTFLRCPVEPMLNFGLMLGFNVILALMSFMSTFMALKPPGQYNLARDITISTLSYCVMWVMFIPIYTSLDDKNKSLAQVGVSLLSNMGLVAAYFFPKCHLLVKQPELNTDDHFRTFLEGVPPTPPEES

mfT1R2b/mfT1R3 = biological target: T2, mfT1R2b/mfT1R3 (Oryzias latipes, UniProt Q2MHK2+Q2MHK4); assay: as above
T2 construct: gene TAS1R2b; entire coding regions, stably co-expressed with chimeric G-protein G16gust44 in Flp-In 293 cells; heterodimer; with Taste receptor type 1 member 3

mfT1R2a/mfT1R3 = biological target: T3, mfT1R2a/mfT1R3 (Oryzias latipes, UniProt Q2MHK2+Q2MHK5); assay: as above
T3 construct: gene TAS1R2a; entire coding regions, stably co-expressed with chimeric G-protein G16gust44 in Flp-In 293 cells; heterodimer; with Taste receptor type 1 member 3

zfT1R2a/zfT1R3 = biological target: T4, zfT1R2a/zfT1R3 (Danio rerio, UniProt Q2MHK9+Q2MHL1, Q2MHK9:Y247H); assay: as above
T4 construct: gene tas1r2.1; entire coding regions, stably co-expressed with chimeric G-protein G16gust44 in Flp-In 293 cells; heterodimer; T1R3 clone Y247H (C741T); with Taste receptor type 1 member 3
T4 sequence (Q2MHL1 26-825): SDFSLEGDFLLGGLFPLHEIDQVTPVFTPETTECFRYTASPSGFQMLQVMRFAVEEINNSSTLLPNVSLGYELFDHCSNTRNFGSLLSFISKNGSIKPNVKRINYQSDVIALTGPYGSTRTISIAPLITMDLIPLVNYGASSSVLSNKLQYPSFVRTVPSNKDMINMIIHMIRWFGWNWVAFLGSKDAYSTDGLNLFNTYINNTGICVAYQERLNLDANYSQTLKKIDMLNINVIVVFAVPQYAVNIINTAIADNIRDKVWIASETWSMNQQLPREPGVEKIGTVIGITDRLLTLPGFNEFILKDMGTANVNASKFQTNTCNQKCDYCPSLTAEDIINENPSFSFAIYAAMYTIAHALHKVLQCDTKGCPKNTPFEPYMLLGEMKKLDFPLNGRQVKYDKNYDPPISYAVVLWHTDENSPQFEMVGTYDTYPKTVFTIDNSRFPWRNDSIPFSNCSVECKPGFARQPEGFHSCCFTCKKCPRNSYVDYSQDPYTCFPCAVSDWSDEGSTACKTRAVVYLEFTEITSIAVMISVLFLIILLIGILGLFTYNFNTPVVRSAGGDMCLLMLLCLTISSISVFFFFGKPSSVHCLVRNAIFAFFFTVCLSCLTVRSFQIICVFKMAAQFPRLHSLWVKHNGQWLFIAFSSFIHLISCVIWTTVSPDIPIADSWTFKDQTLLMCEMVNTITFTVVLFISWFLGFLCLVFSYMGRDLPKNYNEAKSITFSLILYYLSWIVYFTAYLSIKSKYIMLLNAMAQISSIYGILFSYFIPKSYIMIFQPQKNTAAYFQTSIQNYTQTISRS
T4 sequence (Q2MHK9 25-850 Y247H): T1 sequence (Q2MHK9 25-850 Y247H)

mfT1R2c/mfT1R3 = biological target: T5, mfT1R2c/mfT1R3 (Oryzias latipes, UniProt Q2MHK2+Q2MHK3, Q2MHK3:V394L); assay: cell-based
T5 construct: gene TAS1R2c
T5 sequence (Q2MHK2 entry or part of it): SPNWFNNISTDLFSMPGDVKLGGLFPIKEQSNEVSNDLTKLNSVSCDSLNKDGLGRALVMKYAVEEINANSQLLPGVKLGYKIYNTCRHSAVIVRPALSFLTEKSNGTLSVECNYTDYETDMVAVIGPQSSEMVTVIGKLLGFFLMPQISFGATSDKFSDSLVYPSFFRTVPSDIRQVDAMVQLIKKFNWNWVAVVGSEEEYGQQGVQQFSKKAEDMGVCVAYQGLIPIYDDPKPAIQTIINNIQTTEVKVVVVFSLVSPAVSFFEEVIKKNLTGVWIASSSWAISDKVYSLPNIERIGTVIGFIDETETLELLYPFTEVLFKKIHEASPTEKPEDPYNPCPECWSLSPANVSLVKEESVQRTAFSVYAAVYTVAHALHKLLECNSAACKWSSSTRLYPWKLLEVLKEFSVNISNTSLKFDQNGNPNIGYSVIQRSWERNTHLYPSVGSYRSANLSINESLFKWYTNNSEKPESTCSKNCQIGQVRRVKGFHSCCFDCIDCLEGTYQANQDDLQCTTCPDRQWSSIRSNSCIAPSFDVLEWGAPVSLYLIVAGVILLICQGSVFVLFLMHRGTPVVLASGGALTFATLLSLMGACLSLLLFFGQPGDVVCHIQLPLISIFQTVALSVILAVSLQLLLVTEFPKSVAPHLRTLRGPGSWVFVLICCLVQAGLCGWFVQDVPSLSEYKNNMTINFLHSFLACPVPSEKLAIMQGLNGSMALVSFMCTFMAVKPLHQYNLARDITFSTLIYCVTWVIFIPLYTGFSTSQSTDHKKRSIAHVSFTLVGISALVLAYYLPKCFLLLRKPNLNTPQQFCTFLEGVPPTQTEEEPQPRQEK
T5 sequence (Q2MHK3 entry or part of it V394L): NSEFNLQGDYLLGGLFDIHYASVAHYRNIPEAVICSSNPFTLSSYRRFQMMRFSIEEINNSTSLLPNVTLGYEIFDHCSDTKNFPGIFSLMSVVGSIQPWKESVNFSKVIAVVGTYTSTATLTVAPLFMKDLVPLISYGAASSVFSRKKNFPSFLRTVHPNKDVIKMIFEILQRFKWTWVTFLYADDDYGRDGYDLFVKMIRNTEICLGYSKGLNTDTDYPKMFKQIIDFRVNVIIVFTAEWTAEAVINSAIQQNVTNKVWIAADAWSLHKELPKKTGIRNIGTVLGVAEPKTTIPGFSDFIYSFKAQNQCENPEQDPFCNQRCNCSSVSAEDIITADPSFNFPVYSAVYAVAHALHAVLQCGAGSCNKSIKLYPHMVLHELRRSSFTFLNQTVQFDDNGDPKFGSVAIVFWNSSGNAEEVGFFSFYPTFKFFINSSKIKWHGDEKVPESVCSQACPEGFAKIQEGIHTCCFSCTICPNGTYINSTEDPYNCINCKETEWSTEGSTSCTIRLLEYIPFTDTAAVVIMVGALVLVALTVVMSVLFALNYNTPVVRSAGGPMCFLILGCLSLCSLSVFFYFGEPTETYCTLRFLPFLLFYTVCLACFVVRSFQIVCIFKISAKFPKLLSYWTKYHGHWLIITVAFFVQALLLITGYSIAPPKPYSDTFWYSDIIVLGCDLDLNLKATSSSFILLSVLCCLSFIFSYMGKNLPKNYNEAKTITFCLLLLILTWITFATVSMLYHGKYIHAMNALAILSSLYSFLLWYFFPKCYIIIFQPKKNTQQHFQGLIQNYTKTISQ

T2 sequence (Q2MHK4 entry or part of it): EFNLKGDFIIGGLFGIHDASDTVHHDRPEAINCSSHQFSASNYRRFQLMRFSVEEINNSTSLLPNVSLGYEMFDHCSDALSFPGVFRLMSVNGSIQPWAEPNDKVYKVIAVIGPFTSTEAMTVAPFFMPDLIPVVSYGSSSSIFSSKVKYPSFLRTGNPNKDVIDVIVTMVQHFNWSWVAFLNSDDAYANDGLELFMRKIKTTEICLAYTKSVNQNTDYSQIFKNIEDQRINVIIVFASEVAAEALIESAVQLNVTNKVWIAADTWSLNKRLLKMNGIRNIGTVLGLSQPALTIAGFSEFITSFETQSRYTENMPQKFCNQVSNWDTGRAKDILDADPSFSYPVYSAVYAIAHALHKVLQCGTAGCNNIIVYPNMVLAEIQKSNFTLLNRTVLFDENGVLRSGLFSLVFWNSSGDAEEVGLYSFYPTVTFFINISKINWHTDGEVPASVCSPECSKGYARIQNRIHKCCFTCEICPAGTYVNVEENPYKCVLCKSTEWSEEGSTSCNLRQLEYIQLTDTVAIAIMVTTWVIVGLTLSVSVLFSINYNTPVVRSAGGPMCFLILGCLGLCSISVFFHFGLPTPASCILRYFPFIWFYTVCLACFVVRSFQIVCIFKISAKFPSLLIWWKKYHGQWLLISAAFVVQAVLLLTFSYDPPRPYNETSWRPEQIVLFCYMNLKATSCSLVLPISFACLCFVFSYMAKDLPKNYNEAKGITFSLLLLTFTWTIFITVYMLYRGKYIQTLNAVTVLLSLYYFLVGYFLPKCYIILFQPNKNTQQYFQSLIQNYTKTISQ
T2 sequence (Q2MHK2 entry or part of it): as the sequence (Q2MHK2 entry or part of it) above
T3 sequence (Q2MHK2 entry or part of it): as above
T3 sequence (Q2MHK5 entry or part of it): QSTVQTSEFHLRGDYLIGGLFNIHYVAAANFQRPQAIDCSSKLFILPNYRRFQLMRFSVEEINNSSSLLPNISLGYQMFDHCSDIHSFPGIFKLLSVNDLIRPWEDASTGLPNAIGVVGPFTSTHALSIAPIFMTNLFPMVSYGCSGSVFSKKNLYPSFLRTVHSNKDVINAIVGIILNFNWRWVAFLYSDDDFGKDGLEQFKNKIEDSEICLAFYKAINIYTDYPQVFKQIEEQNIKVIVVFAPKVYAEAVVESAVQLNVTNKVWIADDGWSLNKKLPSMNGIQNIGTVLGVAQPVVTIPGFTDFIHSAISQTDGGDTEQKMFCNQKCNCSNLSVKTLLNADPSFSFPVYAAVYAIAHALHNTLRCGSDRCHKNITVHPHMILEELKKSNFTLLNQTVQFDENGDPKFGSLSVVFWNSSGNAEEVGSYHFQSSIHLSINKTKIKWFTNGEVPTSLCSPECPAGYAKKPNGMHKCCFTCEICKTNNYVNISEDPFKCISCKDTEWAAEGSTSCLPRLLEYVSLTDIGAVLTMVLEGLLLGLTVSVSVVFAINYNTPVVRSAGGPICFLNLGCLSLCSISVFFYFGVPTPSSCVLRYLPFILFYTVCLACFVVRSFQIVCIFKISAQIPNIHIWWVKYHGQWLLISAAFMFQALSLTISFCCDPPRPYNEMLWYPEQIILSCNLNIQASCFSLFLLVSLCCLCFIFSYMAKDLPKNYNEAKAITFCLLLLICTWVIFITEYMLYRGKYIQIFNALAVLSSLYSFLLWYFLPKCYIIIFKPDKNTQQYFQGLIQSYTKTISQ

EC50 (zfT1R2b/zfT1R3)	EC50 (mfT1R2b/mfT1R3)	EC50 (mfT1R2a/mfT1R3)	EC50 (zfT1R2a/zfT1R3)	EC50 (mfT1R2c/mfT1R3)	SMILES
2030 ± 150 µM	1750 ± 140 µM	1230 ± 70 µM	220 ± 18 µM	–	C[C@H](N)C(=O)O [L-alanine]
1720 ± 350 µM	3050 ± 220 µM	–	164 ± 36 µM	4.43 ± 0.38 µM	O=C(O)[C@@H]1CCCN1 [L-proline]
–	–	58.8 ± 7.6 µM	–	–	NC(=O)CC[C@H](N)C(=O)O [L-glutamine]
